Measurements as given in PubChem BioAssay AID256 (DTP/NCI, 2004).
Toxic doses and inconclusive results are not listed. The calls were made as follows: active = survival T/C of 150% or more; inactive = T/C below 125% in these data.

System: CD2F1 mice, L1210 leukemia ip, survival T/C
Assay: NCI In Vivo Anticancer Drug Screen. Data for tumor model L1210 Leukemia (intraperitoneal) in CD2F1 (CDF1) mice
Conditions: higher = longer survival
In short: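 Implant tumor; dose compound or vehicle; measure endpoint in both groups; report treated divided by control.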

[1] = endpoint: mean survival time, dose: 100.0 mg/kg/injection, schedule: Q01DX009 (ip), vehicle: saline with Tween-80
[2] = endpoint: mean survival time, dose: 200.0 mg/kg/injection, schedule: Q01DX009 (ip), vehicle: saline with Tween-80
[3] = endpoint: mean survival time, dose: 400.0 mg/kg/injection, schedule: Q01DX009 (ip), vehicle: saline with Tween-80
[4] = endpoint: mean survival time, dose: 100.0 mg/kg/injection, schedule: Q04DX003 (ip), vehicle: saline with Tween-80
[5] = endpoint: mean survival time, dose: 200.0 mg/kg/injection, schedule: Q04DX003 (ip), vehicle: saline with Tween-80
[6] = endpoint: mean survival time, dose: 400.0 mg/kg/injection, schedule: Q04DX003 (ip), vehicle: saline with Tween-80
[7] = endpoint: mean survival time, dose: 100.0 mg/kg/injection, schedule: Q01DX001 (ip), vehicle: saline with Tween-80
[8] = endpoint: mean survival time, dose: 200.0 mg/kg/injection, schedule: Q01DX001 (ip), vehicle: saline with Tween-80
[9] = endpoint: mean survival time, dose: 400.0 mg/kg/injection, schedule: Q01DX001 (ip), vehicle: saline with Tween-80
[10] = endpoint: mean survival time, dose: 100.0 mg/kg/injection, schedule: Q04DX002 (ip), vehicle: saline with Tween-80
[11] = endpoint: mean survival time, dose: 200.0 mg/kg/injection, schedule: Q04DX002 (ip), vehicle: saline with Tween-80
[12] = endpoint: mean survival time, dose: 400.0 mg/kg/injection, schedule: Q04DX002 (ip), vehicle: saline with Tween-80

Measured: T/C

CC(=O)C(C(C)=O)C(c1ccccc1Cl)C(C(C)=O)C(C)=O
inactive: [1] 98 % of control | [2] 102 % of control | [3] 95 % of control

Cc1cn2ccccc2c[n+]1=O
inactive: endpoint: mean survival time, dose: 5.0 mg/kg/injection, schedule: Q04DX003 (ip), vehicle: saline with Tween-80 103 % of control | endpoint: mean survival time, dose: 10.0 mg/kg/injection, schedule: Q04DX003 (ip), vehicle: saline with Tween-80 108 % of control | endpoint: mean survival time, dose: 20.0 mg/kg/injection, schedule: Q04DX003 (ip), vehicle: saline with Tween-80 97 % of control

CC(=O)NC(C)NC(C)=O
inactive: endpoint: mean survival time, dose: 100.0 mg/kg/injection, schedule: Q01DX001 (ip), vehicle: saline 103 % of control | endpoint: mean survival time, dose: 200.0 mg/kg/injection, schedule: Q01DX001 (ip), vehicle: saline 103 % of control | endpoint: mean survival time, dose: 400.0 mg/kg/injection, schedule: Q01DX001 (ip), vehicle: saline 103 % of control

CCOC(=O)/C(C#N)=C1\CCc2cc(OC)ccc21
inactive: [1] 92 % of control | [4] 103 % of control | [2] 93 % of control | [5] 92 % of control | [3] 92 % of control | [6] 98 % of control

Clc1cccc(N=Cc2ccc3c(c2)OCO3)c1Cl
inactive: endpoint: mean survival time, dose: 100.0 mg/kg/injection, schedule: Q01DX001 (ip), vehicle: Klucel (hydroxypropylcellulose) (HPC) 100 % of control | endpoint: mean survival time, dose: 200.0 mg/kg/injection, schedule: Q01DX001 (ip), vehicle: Klucel (hydroxypropylcellulose) (HPC) 97 % of control | endpoint: mean survival time, dose: 400.0 mg/kg/injection, schedule: Q01DX001 (ip), vehicle: Klucel (hydroxypropylcellulose) (HPC) 103 % of control

Nc1nc(=O)n(CCCOc2ccccc2NC(=O)c2ccc(S(=O)(=O)F)cc2)cc1-c1ccc(Cl)c(Cl)c1
inactive: endpoint: mean survival time, dose: 50.0 mg/kg/injection, schedule: Q01DX001 (ip), vehicle: saline with Tween-80 96 % of control | [7] 93 % of control | [8] 93 % of control

Fc1ccc(NC2(c3nnnn3C3CCCCC3)CCN(Cc3ccccc3)CC2)cc1
inactive: [7] 95 % of control | [8] 102 % of control | [9] 101 % of control

CCCC(C(=O)O)C1=CCCC1 (stereo not given)
inactive: endpoint: mean survival time, dose: 25.0 mg/kg/injection, schedule: Q01DX009 (ip), vehicle: saline with Tween-80 102 % of control | endpoint: mean survival time, dose: 50.0 mg/kg/injection, schedule: Q01DX009 (ip), vehicle: saline with Tween-80 102 % of control | [1] 100 % of control

NCC1CCCC1N (stereo not given)
inactive: endpoint: mean survival time, dose: 18.8 mg/kg/injection, schedule: Q01DX001 (ip), vehicle: saline 114 % of control | endpoint: mean survival time, dose: 18.8 mg/kg/injection, schedule: Q04DX003 (ip), vehicle: saline 101 % of control | endpoint: mean survival time, dose: 37.5 mg/kg/injection, schedule: Q01DX001 (ip), vehicle: saline 108 % of control | endpoint: mean survival time, dose: 37.5 mg/kg/injection, schedule: Q04DX003 (ip), vehicle: saline 101 % of control | endpoint: mean survival time, dose: 75.0 mg/kg/injection, schedule: Q01DX001 (ip), vehicle: saline 103 % of control | endpoint: mean survival time, dose: 75.0 mg/kg/injection, schedule: Q04DX003 (ip), vehicle: saline 104 % of control

COC(=O)C(C(=O)OC)c1ccc(C)c(OC)c1
inactive: [1] 97 % of control | [4] 104 % of control | [2] 98 % of control | [5] 104 % of control | [3] 97 % of control | [6] 102 % of control

CNC(=S)NNc1ccccc1Cl
inactive: endpoint: mean survival time, dose: 12.5 mg/kg/injection, schedule: Q01DX009 (ip), vehicle: other 98 % of control | endpoint: mean survival time, dose: 25.0 mg/kg/injection, schedule: Q01DX009 (ip), vehicle: other 94 % of control | endpoint: mean survival time, dose: 50.0 mg/kg/injection, schedule: Q01DX009 (ip), vehicle: other 88 % of control | endpoint: mean survival time, dose: 100.0 mg/kg/injection, schedule: Q01DX009 (ip), vehicle: other 104 % of control | endpoint: mean survival time, dose: 200.0 mg/kg/injection, schedule: Q01DX009 (ip), vehicle: other 104 % of control

OCCN(CCO)N=Nc1c(F)cc(F)cc1F
inactive: endpoint: mean survival time, dose: 25.0 mg/kg/injection, schedule: Q01DX005 (ip), vehicle: other 98 % of control | endpoint: mean survival time, dose: 25.0 mg/kg/injection, schedule: Q04DX003 (ip), vehicle: water 94 % of control | endpoint: mean survival time, dose: 50.0 mg/kg/injection, schedule: Q01DX005 (ip), vehicle: other 101 % of control | endpoint: mean survival time, dose: 50.0 mg/kg/injection, schedule: Q04DX003 (ip), vehicle: water 94 % of control | endpoint: mean survival time, dose: 100.0 mg/kg/injection, schedule: Q01DX005 (ip), vehicle: other 101 % of control | endpoint: mean survival time, dose: 100.0 mg/kg/injection, schedule: Q04DX003 (ip), vehicle: water 97 % of control | endpoint: mean survival time, dose: 200.0 mg/kg/injection, schedule: Q01DX005 (ip), vehicle: other 102 % of control | endpoint: mean survival time, dose: 200.0 mg/kg/injection, schedule: Q04DX003 (ip), vehicle: water 97 % of control | endpoint: mean survival time, dose: 400.0 mg/kg/injection, schedule: Q01DX005 (ip), vehicle: other 112 % of control | endpoint: mean survival time, dose: 400.0 mg/kg/injection, schedule: Q04DX003 (ip), vehicle: water 100 % of control

Cn1c(=O)c2c(nc(NCCOC(=S)S)n2C)n(C)c1=O
inactive: endpoint: mean survival time, dose: 12.5 mg/kg/injection, schedule: Q01DX005 (ip), vehicle: distilled water + Tween-80 94 % of control | endpoint: mean survival time, dose: 25.0 mg/kg/injection, schedule: Q01DX005 (ip), vehicle: distilled water + Tween-80 91 % of control | endpoint: mean survival time, dose: 50.0 mg/kg/injection, schedule: Q01DX005 (ip), vehicle: distilled water + Tween-80 100 % of control

CCOC(=O)c1cnc(SCc2ccccc2Cl)nc1N1CC1
inactive: endpoint: mean survival time, dose: 28.05 mg/kg/injection, schedule: Q01DX009 (ip), vehicle: saline with Tween-80 115 % of control

COc1cc2c(cc1C(C)C)CCC1C(C)(C(=O)O)CCCC21C (stereo not given)
inactive: [7] 100 % of control | endpoint: mean survival time, dose: 100.0 mg/kg/injection, schedule: Q01DX009 (ip), vehicle: saline sonified 95 % of control | [8] 97 % of control | endpoint: mean survival time, dose: 200.0 mg/kg/injection, schedule: Q01DX009 (ip), vehicle: saline sonified 97 % of control | [9] 102 % of control | endpoint: mean survival time, dose: 400.0 mg/kg/injection, schedule: Q01DX009 (ip), vehicle: saline sonified 96 % of control

CC1CN(Cc2ccccc2O)CC(C)N1 (stereo not given)
inactive: endpoint: mean survival time, dose: 25.0 mg/kg/injection, schedule: Q01DX005 (ip), vehicle: water 96 % of control | endpoint: mean survival time, dose: 50.0 mg/kg/injection, schedule: Q01DX005 (ip), vehicle: water 94 % of control | endpoint: mean survival time, dose: 100.0 mg/kg/injection, schedule: Q01DX005 (ip), vehicle: water 94 % of control

COC(C(N)=O)(c1ccccc1)C(F)(F)F (stereo not given)
inactive: [1] 101 % of control | [4] 102 % of control | [2] 105 % of control | [5] 100 % of control | [3] 94 % of control | [6] 89 % of control

O=c1nc(NC2CC2)ccn1C1OC(CO)C(O)C1O (stereo not given)
inactive: endpoint: median survival time, dose: 12.5 mg/kg/injection, schedule: Q01DX005 (ip), vehicle: water 97 % of control | endpoint: median survival time, dose: 25.0 mg/kg/injection, schedule: Q01DX005 (ip), vehicle: water 106 % of control | endpoint: median survival time, dose: 50.0 mg/kg/injection, schedule: Q01DX005 (ip), vehicle: water 107 % of control | endpoint: median survival time, dose: 100.0 mg/kg/injection, schedule: Q01DX005 (ip), vehicle: water 107 % of control | endpoint: median survival time, dose: 200.0 mg/kg/injection, schedule: Q01DX005 (ip), vehicle: water 101 % of control

[CH3][Sb]([CH3])([CH3])([O]C(=O)CCl)[O]C(=O)CCl
inactive: [10] 107 % of control | [11] 107 % of control | [12] 103 % of control

CCOc1ccc(Nc2c3ccccc3nc3ccccc23)cc1
inactive: [2] 88 % of control

Cc1cccc(NC(=O)COc2cc(Cl)c(Cl)cc2Cl)c1
inactive: [10] 98 % of control | [11] 98 % of control | [12] 94 % of control
